This note sets out measurements from ChEMBL document CHEMBL4828704, “Efophylins A and B, Two C2-Asymmetric Macrodiolide Immunosuppressants from Streptomyces malaysiensis” (J Nat Prod, 2021).

Assay [1] addresses Calcineurin subunit B type 1 (Homo sapiens, UniProt P63098). Put plainly: Inhibition of CNB (unknown origin) using p-NPP as substrate preincubated for 10 mins followed by substrate addition by spectrophotometry analysis.
Assay [2] has as its system Splenocyte. Briefly: Immunosuppressive activity in C57BL/6 mouse splenocyte assessed as inhibition of mixed lymphocyte reaction when cocultured with mitomycin-C pretreated BALB/c mouse splenocyte measured up to 72 hrs by CCK-8 assay. Conditions: C57BL/6, Splenocyte. The assay is classed as functional, cell-based.
Assay [3] in a line: Inhibition of ConA-induced proliferation of BALB/c mouse splenocyte measured after 72 hrs by CCK-8 assay. The class given is functional, tissue-based. (In general: Formazan colour is commonly taken as a measure of viable cells.)
The subject of assay [4] is Splenocyte. Briefly: Inhibition of NFAT phosphorylation in BALB/c mouse splenocyte at 5 to 30 uM by immunoblotting analysis. The class given is tissue-based. The settings on record: dose 5-30 µM.
Assay [5] concerns Splenocyte. Briefly: Cytotoxicity against BALB/c mouse splenocyte assessed as reduction in cell viability measured after 72 hrs by CCK-8 assay. The class given is cell-based.
Assay [6] deals with T-cell. Put plainly: Inhibition of ConA-induced IL-2 expression in BALB/c mouse T-lymphocyte at 40 uM measured after 24 hrs by ELISA. The assay is classed as functional, tissue-based.
Assay [7] has as its system Splenocyte. Briefly: Inhibition of NFAT activation in BALB/c mouse splenocyte at 5 to 30 uM by immunoblotting analysis. The assay is classed as tissue-based. Conditions: dose 5-30 µM. In general terms: Immunoblotting shows a protein as a band on a membrane.
Assay [8] relates to T-cell. Put plainly: Inhibition of ConA-induced IL-2 expression in BALB/c mouse T-lymphocyte measured after 24 hrs by ELISA. The class given is functional, tissue-based. (ELISA stands for enzyme-linked immunosorbent assay.)

Calls of active or inactive are those of the source. The rule behind the calls is not given here.

Sequence of Calcineurin subunit B type 1 (P63098 2-170 limits assumed): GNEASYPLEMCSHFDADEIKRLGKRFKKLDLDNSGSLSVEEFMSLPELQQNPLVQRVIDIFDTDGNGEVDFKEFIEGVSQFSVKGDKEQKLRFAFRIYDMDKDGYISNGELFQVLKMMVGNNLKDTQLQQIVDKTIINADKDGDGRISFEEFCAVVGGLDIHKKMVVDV

Consider `CC[C@@H]1[C@@H](C)O[C@@](O)([C@@H](C)[C@H](O)[C@H](C)[C@H]2OC(=O)/C=C/C=C/[C@H](C)[C@@H]([C@@H](C)[C@@H](O)[C@H](C)C(O)/C=C/[C@H](CC)[C@@H](C)O)OC(=O)/C=C/C=C/[C@@H]2C)C[C@H]1O[C@H]1C[C@H](O)[C@H](O)[C@H](C)O1` (some centres undefined), for which the inhibition entry in assay [1] is “inactive”.
By IC50 is commonly meant the concentration needed to halve the response being measured. As for `CC[C@@H]1[C@@H](C)O[C@@](OC)([C@@H](C)[C@H](O)[C@H](C)[C@H]2OC(=O)/C=C/C=C/[C@H](C)[C@@H]([C@@H](C)[C@@H](O)[C@H](C)C(O)/C=C/[C@H](CC)[C@@H](C)O)OC(=O)/C=C/C=C/[C@@H]2C)C[C@H]1O[C@H]1C[C@H](O)[C@H](O)[C@H](C)O1` (some centres undefined), the IC50 in the assay on Splenocyte [2] came to 27.9 µM; in assay [3], 24.6 µM; in the assay on Splenocyte [5] it was 49 µM; in assay [1] it was 24 µM. Besides, the inhibition result in the assay on Splenocyte [4], in the assay on T-cell [6] and with Splenocyte [7] was “Active” throughout. In addition, the inhibition result in the assay with T-cell [8] is “Dose-Dependent Effect”.
